The test system of test [1] is Leucine-rich repeat serine/threonine-protein kinase 2 (Homo sapiens), Q5S007 [G2019S]. Particulars: Compound concentration 1000.0 nM; call rule not given here.
In test [2] the target is Serine/threonine-protein kinase 38 (Homo sapiens) (UniProt Q15208). Particulars: Compound concentration 1000.0 nM.
Test [3] addresses Tumor necrosis factor (Homo sapiens) (UniProt P01375). The experiment in a line: TNF-alpha (h) CEREP ligand profiling. To be noted: Compound concentration 10.0 uM.
The target in test [4] is Prostaglandin F2-alpha receptor (Homo sapiens, UniProt P43088). Description: Binding assay (PTGFR).
Test [5] concerns the target Sodium/potassium-transporting ATPase (Homo sapiens) (UniProt P05023+P14415+P05026+P50993+P54709+P13637+Q13733+P54710). The experiment in a line: ATPase (Na+/K+) CEREP ligand profiling. The test is classed as protein-complex assay. To be noted: Compound concentration 10.0 uM.
The target in test [6] is STE20-like serine/threonine-protein kinase (Homo sapiens) (UniProt Q9H2G2). To be noted: Compound concentration 1000.0 nM.
Test [7] addresses Beta-2 adrenergic receptor (Homo sapiens) (UniProt P07550). The experiment in a line: beta 2 (h) CEREP ligand profiling. To be noted: Compound concentration 10.0 uM.
Test [8] concerns the target Phosphatidylinositol 5-phosphate 4-kinase type-2 beta (Homo sapiens) (UniProt P78356). Particulars: Compound concentration 1000.0 nM.
The target in test [9] is Tyrosine-protein kinase ABL1 (Homo sapiens) (UniProt P00519). Description: Abl kinase (h) CEREP ligand profiling. To be noted: Compound concentration 10.0 uM.
Sequence of Tyrosine-protein kinase ABL1 (Homo sapiens) (P00519 whole entry, the tested form may be a part): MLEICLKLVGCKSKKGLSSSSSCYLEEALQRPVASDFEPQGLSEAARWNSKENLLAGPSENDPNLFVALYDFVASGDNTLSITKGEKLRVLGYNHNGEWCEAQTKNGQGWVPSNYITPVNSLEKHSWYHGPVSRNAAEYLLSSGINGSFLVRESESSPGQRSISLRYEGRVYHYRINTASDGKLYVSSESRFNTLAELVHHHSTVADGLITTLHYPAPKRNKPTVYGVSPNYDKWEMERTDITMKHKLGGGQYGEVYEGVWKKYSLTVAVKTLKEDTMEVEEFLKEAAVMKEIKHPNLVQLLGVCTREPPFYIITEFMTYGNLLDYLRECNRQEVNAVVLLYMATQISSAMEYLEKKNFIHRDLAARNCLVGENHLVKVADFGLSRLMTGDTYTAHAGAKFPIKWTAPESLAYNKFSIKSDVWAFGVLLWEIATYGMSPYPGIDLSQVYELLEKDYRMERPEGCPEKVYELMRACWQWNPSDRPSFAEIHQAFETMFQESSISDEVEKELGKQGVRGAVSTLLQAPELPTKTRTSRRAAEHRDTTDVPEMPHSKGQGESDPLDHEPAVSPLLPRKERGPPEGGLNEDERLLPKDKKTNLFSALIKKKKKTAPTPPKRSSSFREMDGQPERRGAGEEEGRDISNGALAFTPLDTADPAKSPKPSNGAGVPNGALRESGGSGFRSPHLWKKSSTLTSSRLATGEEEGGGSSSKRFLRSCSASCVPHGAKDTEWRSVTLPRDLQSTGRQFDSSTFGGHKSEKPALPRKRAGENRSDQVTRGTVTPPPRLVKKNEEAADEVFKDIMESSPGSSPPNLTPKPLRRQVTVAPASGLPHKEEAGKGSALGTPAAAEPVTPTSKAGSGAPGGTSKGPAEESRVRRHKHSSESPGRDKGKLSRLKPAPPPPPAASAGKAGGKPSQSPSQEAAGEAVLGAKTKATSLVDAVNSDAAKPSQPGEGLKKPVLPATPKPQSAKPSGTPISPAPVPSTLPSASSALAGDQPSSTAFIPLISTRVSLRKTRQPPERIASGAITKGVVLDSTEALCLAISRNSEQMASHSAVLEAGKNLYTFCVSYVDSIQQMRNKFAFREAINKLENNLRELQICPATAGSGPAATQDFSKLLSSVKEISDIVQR
The target of test [10] is Serine/threonine-protein kinase MARK2 (Homo sapiens) (UniProt Q7KZI7). To be noted: Compound concentration 1000.0 nM.
Sequence of Serine/threonine-protein kinase MARK2 (Homo sapiens) (Q7KZI7 whole entry): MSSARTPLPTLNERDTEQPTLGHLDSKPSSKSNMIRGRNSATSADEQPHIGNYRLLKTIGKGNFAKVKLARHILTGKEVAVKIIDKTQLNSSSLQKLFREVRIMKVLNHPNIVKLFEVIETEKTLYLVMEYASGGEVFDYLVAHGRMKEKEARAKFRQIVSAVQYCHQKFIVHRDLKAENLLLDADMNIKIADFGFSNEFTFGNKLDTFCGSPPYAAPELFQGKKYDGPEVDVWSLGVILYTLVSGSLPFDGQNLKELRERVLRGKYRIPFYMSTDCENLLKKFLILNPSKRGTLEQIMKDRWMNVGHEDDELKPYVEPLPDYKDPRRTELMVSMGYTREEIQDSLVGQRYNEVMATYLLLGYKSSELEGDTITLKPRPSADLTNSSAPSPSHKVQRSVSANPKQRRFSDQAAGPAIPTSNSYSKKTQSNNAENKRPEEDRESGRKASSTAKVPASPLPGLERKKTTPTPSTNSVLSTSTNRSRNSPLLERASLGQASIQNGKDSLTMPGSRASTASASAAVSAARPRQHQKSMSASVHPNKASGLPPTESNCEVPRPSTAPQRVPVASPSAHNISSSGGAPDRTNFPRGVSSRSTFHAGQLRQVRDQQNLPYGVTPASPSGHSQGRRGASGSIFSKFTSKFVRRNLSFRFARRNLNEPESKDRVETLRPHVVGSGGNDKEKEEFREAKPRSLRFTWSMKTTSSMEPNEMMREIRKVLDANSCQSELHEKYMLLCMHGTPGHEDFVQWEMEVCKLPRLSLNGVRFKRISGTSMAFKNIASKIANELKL
The target of test [11] is Phosphatidylinositol 4-phosphate 5-kinase type-1 gamma (Homo sapiens) (UniProt O60331). Particulars: Compound concentration 1000.0 nM.
Another test addresses Phosphodiesterase 3 (Homo sapiens, UniProt Q14432+Q13370). The experiment in a line: PDE3 (h) CEREP ligand profiling. Format: protein assay.
For test [12], the target named is D(3) dopamine receptor (Homo sapiens) (UniProt P35462). Description: D3 (h) CEREP ligand profiling. To be noted: Compound concentration 10.0 uM.
In test [13] the target is T1, Alpha-2A adrenergic receptor (Homo sapiens) (UniProt P08913).
T1 sequence (whole entry): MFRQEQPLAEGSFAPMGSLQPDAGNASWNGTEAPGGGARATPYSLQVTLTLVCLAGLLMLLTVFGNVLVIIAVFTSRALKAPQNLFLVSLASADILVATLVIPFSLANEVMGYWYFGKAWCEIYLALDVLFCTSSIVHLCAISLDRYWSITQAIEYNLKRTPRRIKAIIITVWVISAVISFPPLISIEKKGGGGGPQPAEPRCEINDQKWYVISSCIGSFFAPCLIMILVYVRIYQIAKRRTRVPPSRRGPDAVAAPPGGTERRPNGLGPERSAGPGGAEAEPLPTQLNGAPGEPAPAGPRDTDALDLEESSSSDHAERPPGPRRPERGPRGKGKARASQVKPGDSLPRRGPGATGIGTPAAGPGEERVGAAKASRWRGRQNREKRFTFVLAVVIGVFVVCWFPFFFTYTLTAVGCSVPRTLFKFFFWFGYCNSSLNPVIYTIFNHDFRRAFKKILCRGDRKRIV
Description: alpha 2A (h) CEREP ligand profiling. Particulars: Compound concentration 10.0 uM.

Test [14] addresses Mitogen-activated protein kinase kinase kinase 15 (Homo sapiens) (UniProt Q6ZN16). Particulars: Compound concentration 1000.0 nM.
The target of test [15] is Sodium-dependent noradrenaline transporter (Homo sapiens) (UniProt P23975). The experiment in a line: NE transporter (h) CEREP ligand profiling. To be noted: Compound concentration 10.0 uM.
Test [16] deals with Death-associated protein kinase 2 (Homo sapiens) (UniProt Q9UIK4). To be noted: Compound concentration 1000.0 nM.
The target in test [17] is MAP kinase-interacting serine/threonine-protein kinase 1 (Homo sapiens) (UniProt Q9BUB5). To be noted: Compound concentration 1000.0 nM.
Sequence of MAP kinase-interacting serine/threonine-protein kinase 1 (Homo sapiens) (Q9BUB5 whole entry, looked up): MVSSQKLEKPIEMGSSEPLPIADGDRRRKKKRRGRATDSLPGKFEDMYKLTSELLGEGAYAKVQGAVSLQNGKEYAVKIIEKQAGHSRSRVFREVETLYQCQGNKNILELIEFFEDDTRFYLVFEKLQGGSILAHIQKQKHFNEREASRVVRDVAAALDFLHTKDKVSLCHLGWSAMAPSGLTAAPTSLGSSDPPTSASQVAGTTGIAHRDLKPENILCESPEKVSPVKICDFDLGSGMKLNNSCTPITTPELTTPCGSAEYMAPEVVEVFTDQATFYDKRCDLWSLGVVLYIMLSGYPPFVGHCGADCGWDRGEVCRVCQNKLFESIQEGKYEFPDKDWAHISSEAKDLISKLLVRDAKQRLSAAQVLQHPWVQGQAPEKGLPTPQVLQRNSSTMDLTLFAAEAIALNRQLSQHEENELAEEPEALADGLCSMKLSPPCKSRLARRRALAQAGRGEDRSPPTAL
The target of test [18] is Tyrosine-protein kinase Lck (Homo sapiens) (UniProt P06239). To be noted: Compound concentration 1000.0 nM.
Test [19] has as its target Receptor tyrosine-protein kinase erbB-3 (Homo sapiens) (UniProt P21860). To be noted: Compound concentration 1000.0 nM.
The target of test [20] is Tyrosine-protein kinase Fer (Homo sapiens) (UniProt P16591). To be noted: Compound concentration 1000.0 nM.
Test [21] deals with Serine/threonine-protein kinase pim-3 (Homo sapiens) (UniProt Q86V86). To be noted: Compound concentration 1000.0 nM.
The target of test [22] is Substance-P receptor (Homo sapiens) (UniProt P25103). Description: NK1 (h) CEREP ligand profiling. Particulars: Compound concentration 10.0 uM.
For test [23], the target named is Serine/threonine-protein kinase ULK3 (Homo sapiens) (UniProt Q6PHR2). To be noted: Compound concentration 1000.0 nM.
In test [24] the target is 5'-AMP-activated protein kinase catalytic subunit alpha-2 (Homo sapiens) (UniProt P54646). Particulars: Compound concentration 1000.0 nM.
Sequence of 5'-AMP-activated protein kinase catalytic subunit alpha-2 (Homo sapiens) (P54646 whole entry, looked up): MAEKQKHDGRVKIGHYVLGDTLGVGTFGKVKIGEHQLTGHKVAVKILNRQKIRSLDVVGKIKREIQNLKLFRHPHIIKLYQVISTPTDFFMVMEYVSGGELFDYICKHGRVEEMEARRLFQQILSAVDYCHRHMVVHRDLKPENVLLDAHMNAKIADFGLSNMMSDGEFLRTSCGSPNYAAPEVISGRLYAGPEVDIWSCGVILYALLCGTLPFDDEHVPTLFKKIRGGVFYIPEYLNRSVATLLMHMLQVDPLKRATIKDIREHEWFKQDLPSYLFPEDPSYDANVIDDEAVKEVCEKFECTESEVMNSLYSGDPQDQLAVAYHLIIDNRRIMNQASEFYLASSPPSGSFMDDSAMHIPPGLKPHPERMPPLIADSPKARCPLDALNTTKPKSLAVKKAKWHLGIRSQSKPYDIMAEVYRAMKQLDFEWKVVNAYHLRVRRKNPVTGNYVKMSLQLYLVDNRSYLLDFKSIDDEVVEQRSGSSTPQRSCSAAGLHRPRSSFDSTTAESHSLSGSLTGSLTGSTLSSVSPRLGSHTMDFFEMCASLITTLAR
For test [25], the target named is Serine/threonine-protein kinase LATS2 (Homo sapiens) (UniProt Q9NRM7). Particulars: Compound concentration 1000.0 nM.
The target in test [26] is Mitogen-activated protein kinase kinase kinase 7 (Homo sapiens) (UniProt O43318). To be noted: Compound concentration 1000.0 nM.
Test [27] deals with Sodium-dependent dopamine transporter (Homo sapiens) (UniProt Q01959). Description: DA transporter (h) CEREP ligand profiling. Particulars: Compound concentration 10.0 uM.
Sequence of Sodium-dependent dopamine transporter (Homo sapiens) (Q01959 whole entry): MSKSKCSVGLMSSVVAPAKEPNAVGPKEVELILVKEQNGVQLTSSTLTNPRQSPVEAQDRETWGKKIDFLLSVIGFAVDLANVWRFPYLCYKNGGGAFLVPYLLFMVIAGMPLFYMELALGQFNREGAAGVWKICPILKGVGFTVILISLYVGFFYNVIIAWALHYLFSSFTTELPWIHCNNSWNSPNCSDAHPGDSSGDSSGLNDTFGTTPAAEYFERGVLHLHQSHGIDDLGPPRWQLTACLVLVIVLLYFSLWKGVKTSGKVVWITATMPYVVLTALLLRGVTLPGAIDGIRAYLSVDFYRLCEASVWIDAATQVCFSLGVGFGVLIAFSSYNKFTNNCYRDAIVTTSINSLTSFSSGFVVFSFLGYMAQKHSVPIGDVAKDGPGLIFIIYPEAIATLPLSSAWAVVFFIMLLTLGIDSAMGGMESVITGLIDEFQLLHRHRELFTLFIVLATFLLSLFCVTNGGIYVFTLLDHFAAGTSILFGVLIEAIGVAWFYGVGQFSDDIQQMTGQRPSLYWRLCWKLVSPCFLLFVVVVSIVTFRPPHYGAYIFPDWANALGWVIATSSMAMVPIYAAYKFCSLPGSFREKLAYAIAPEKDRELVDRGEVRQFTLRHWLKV
Test [28] addresses Serine/threonine-protein kinase Chk1 (Homo sapiens) (UniProt O14757). Particulars: Compound concentration 1000.0 nM.
For test [29], the target named is High affinity choline transporter 1 (Homo sapiens) (UniProt Q9GZV3). Description: Choline transporter (h) (CHT1) CEREP ligand profiling. Particulars: Compound concentration 10.0 uM.
Test [30] deals with Calcium/calmodulin-dependent protein kinase type IV (Homo sapiens) (UniProt Q16566). To be noted: Compound concentration 1000.0 nM.
Test [31] concerns the target Matrix metalloproteinase-9 (Homo sapiens) (UniProt P14780). Description: MMP-9 (h) CEREP ligand profiling. Particulars: Compound concentration 10.0 uM.
Test [32] has as its target Homeodomain-interacting protein kinase 2 (Homo sapiens) (UniProt Q9H2X6). Particulars: Compound concentration 1000.0 nM.
The target in test [33] is Dual 3',5'-cyclic-AMP and -GMP phosphodiesterase 11A (Homo sapiens) (UniProt Q9HCR9). Description: PDE11 (h) CEREP ligand profiling. Particulars: Compound concentration 10.0 uM.
For test [34], the target named is Tyrosine-protein kinase ABL1 (Homo sapiens) (UniProt P00519). Particulars: Compound concentration 1000.0 nM.
Test [35] concerns the target Ankyrin repeat and protein kinase domain-containing protein 1 (Homo sapiens) (UniProt Q8NFD2). Particulars: Compound concentration 1000.0 nM.
The target in test [36] is Serine/threonine-protein kinase D2 (Homo sapiens) (UniProt Q9BZL6). Particulars: Compound concentration 1000.0 nM.
Test [37] has as its target Sodium-dependent dopamine transporter (Homo sapiens) (UniProt Q01959). Particulars: Compound concentration 10.0 uM.
The target in test [38] is Beta-1 adrenergic receptor (Homo sapiens) (UniProt P08588). To be noted: Compound concentration 10.0 uM.

Sequence of Matrix metalloproteinase-9 (Homo sapiens) (P14780 whole entry): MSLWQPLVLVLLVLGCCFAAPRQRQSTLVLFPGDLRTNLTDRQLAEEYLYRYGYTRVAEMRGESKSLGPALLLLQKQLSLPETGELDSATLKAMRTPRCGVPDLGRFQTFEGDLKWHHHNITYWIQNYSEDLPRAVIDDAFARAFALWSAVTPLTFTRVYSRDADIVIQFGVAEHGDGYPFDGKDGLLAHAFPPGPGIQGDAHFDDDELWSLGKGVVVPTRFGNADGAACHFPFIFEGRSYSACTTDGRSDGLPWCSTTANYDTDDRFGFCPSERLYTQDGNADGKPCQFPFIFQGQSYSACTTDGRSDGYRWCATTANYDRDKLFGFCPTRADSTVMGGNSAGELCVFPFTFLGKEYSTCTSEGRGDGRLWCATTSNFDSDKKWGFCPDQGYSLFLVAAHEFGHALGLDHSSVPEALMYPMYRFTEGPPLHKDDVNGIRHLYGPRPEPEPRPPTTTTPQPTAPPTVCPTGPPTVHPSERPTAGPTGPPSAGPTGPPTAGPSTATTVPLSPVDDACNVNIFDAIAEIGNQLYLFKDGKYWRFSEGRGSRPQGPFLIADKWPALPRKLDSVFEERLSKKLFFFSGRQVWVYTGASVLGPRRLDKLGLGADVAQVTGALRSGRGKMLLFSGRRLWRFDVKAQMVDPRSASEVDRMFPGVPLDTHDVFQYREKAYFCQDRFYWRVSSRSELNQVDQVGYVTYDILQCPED
Sequence of Serine/threonine-protein kinase 38 (Homo sapiens) (Q15208 2-465 limits assumed): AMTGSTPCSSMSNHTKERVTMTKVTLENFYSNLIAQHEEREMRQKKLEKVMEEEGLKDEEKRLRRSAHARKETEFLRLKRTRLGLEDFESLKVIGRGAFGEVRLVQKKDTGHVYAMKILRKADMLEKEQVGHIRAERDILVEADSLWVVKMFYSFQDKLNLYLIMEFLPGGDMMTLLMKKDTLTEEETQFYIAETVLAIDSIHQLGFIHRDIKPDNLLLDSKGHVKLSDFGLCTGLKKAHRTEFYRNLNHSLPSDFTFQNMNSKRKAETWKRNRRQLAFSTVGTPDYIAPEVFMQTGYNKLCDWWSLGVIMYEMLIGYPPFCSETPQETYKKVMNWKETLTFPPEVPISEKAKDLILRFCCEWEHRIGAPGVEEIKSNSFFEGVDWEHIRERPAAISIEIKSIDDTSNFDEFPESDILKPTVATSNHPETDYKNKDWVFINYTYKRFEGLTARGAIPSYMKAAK
Sequence of Tumor necrosis factor (Homo sapiens) (P01375 whole entry): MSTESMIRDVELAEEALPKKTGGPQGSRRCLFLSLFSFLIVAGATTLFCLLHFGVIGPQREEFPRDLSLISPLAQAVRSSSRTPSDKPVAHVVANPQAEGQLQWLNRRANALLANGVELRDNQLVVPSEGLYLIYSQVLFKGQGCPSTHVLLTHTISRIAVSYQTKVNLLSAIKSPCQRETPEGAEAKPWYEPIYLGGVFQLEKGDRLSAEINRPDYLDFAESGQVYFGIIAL

For `COc1ccc2cc(OCC3(C(=O)O)CN(C(=O)c4ccc(F)cc4)C3)ccc2c1` [PF-04418948], the residual activity was 84% in test [1]; 98% in test [2]; 85% in test [6]; 74% in [8]; 91% in test [10]; 84% in test [11]. In addition, the residual activity in test [14] is 94%; in [16], 98%; in test [17] it was 93%; in [18], 80%; in test [19], 89%; in [20], 74%. Moreover, the residual activity was 98% in [21]; 86% in test [23]; 28% in test [24]; 90% in test [25]; 96% in test [26]; 87% in [28]. In addition, the residual activity in [30] was 88%; in [32] it was 78%; in [34], 78%; in test [35], 86%; in test [36] it was 93%. The inhibition (usually the change of the read-out against control, counted positive when it falls) in [3] was -1%; in test [5], 5%; in test [7] it was -4%; in test [9] it was 9%; on Phosphodiesterase 3 (Compound concentration 10.0 uM) it was 78%; in [12] it was 1%. The inhibition was 26% in [13]; -2% in [15]; 3% in [22]; 11% in [27]; 4% in test [29]; 10% in test [31]. Besides, in [33], the inhibition is 14%. The Ki (commonly a measure of affinity in units of concentration, obtained from inhibition or displacement) in test [4] is on record as > 10 µM (not active). Besides, the IC50 (as a rule, the concentration needed to halve the response being measured) against Phosphodiesterase 3 came out at 3.5 µM.
On to `O=C(c1ccc(F)cc1)N1CC(COc2ccc(Br)cc2)(C(=O)O)C1` [PF-04475866], for which the inhibition in [37] is 6.07%; in [38], -6.66%.
